Data on two molecules can be found in patent publication US4540689A, “Penicillin derivative” (Kureha Kagaku Kogyo Kabushiki Kaisha, priority 1981, dated 1985).

Structures are written as SMILES. Converted amounts (≈) assume the structure as drawn.

The test system of assay [1] is Staphylococcus aureus IAM 1011. Put plainly: Antibacterial activity (MIC), agar plate, Staph. aureus. Type of assay: cell-based. To be noted: Staph. aureus IAM 1011, Mueller-Hinton agar, 37° C., 18 to 24 hours; unit assumed. The protocol: (§1) Antibacterial activity of the present compounds was examined as follows.
(§2) Antibacterial activity of each of the present compounds was examined against the following two bacteria according to the standard method of Japan Society of Chemotherapy:
Staphylococcus aureus IAM 1011
(§3) Each bacterial strain was inoculated into the Mueller-Hinton's culture medium and cultured at 37° C. for 18 to 48 hours. The culture medium was diluted so as to contain 1×10^6 cells of the bacteria per one ml, and the obtained medium was used as the bacterial specimen.
(§4) Agar plates were prepared by adding one part by weight of each solution of the present compounds having a predetermined concentration to nine parts by weight of Mueller-Hinton's culture medium.
(§5) A loopful amount of the bacterial specimen prepared above was smeared to make a streak of about 2 cm on each agar plate and cultured at 37° C. for 18 to 24 hours. The minimum concentration for completely inhibiting proliferation of the bacteria (referred as MIC) was determined.

For assay [2], the system named is Staphylococcus aureus IAM 1011. Nature of the assay: Activation by rat liver homogenate (S-9 mix), penicillin cup proliferation-inhibiting circle. It is filed as cell-based. To be noted: compound solution 100 μg/ml, ratio of circle diameter to conventional penicillin antibiotic; for Proliferation-inhibiting index (%), after adding S-9 mix: incubated with S-9 mix 37° C., 20 min; for Proliferation-inhibiting index (%), before adding S-9 mix: phosphoric buffer control without S-9. As to the method:
As an enzyme for activating metabolism, a rat liver homogenate (S-9, manufactured by Oriental Yeast Company, Japan) was used in the following composition per one ml (hereinafter referred to as S-9 mix).
0.1 ml of each solution of the present compounds at a concentration of 100 μg/ml was mixed with 0.9 ml of S-9 mix or 0.9 ml of 0.1M phosphoric buffer solution (as a control) and the obtained mixture was incubated at 37° C. for 20 min with shaking.
Staphylococcus aureus IAM 1011 was inoculated into a Mueller-Hinton's culture medium and cultured at 37° C. for 18 hours. The culture medium was adjusted to a cell concentration of 1×10^8 per one ml and mixed with 50 times by volume of Mueller-Hinton's agar culture medium to obtain an agar plate.
A penicillin cup of 8 mm in diameter was placed on the agar plate prepared above, and into the cup 0.1 ml of the mixture was introduced and allowed to stand at 4° C. for 2 hours and then cultured at 37° C. for 18 hours to measure the diameter of a circle in which the proliferation of bacteria was inhibited (proliferation-inhibiting circle). In Table 4, the proliferation-inhibitingindex is shown with the ratio (%) of the diameter of the proliferation-inhibiting circle obtained by using each of the present compounds to that obtained by using the comparative compound (conventionalpenicillin antibiotic).

In a further assay the test system is Escherichia coli. Put plainly: Effect on intestinal bacterial colonies, E. coli count in feces. It is filed as in vivo. To be noted: female ICR mice, oral 500 mg/kg/day for two days, first day after administration; before administration 6.4. The protocol: (§6) Effect of the present compounds on the intestinal bacterial colonies was examined.
(§7) Each of the present compounds was orally administered to mice (one group consisting of five female ICR mice of 6-week-old) for two consecutive days at a dose of 500 mg/kg/day.
(§8) Before and on the first day after the administration, feces of each mouse was collected and diluted with an anerobic diluent (phosphoric buffer solution) of 100 times volume and ground. 0.1 ml of the diluted and ground feces was smeared on each culture medium shown in Table 1 and cultured aerobically or anaerobically (according to the anaerobic glove box method) under each condition shown in Table 1.
DHL agar aerobic, 37° C., one day

The next assay deals with Pseudomonas aeruginosa. Put plainly: Effect on intestinal bacterial colonies, Ps. aeruginosa count in feces. It is filed as in vivo. The settings on record: female ICR mice, oral 500 mg/kg/day for two days, first day after administration; before administration <3.0. As to the method: as §6, §7, §8
NAC agar aerobic, 37° C., one day

The subject of another assay is Streptococcus spp. Put plainly: Effect on intestinal bacterial colonies, Streptococcus count in feces. The settings on record: female ICR mice, oral 500 mg/kg/day for two days, first day after administration; before administration 6.8. It is filed as in vivo. The protocol:
as §6, §7, §8
TATAC agar aerobic, 37° C., one day

The subject of assay [3] is Lactobacillus acidophilus. Put plainly: Effect on intestinal bacterial colonies, L. acidophilus count in feces. It is filed as in vivo. To be noted: female ICR mice, oral 500 mg/kg/day for two days, first day after administration; before administration 9.0. As to the method: as §6, §7, §8
Lactobacillus acidophilus
LBS agar anaerobic, 37° C., five

For another assay, the system named is Lactobacillus bifidus. Nature of the assay: Effect on intestinal bacterial colonies, L. bifidus count in feces. The settings on record: female ICR mice, oral 500 mg/kg/day for two days, first day after administration; before administration 8.4. Type of assay: in vivo. As to the method:
as §6, §7, §8
BS agar anaerobic, 37° C., five

For assay [4], the system named is Escherichia coli IFO 12734. Put plainly: Antibacterial activity (MIC), agar plate, E. coli. The settings on record: E. coli IFO 12734, Mueller-Hinton agar, 37° C., 18 to 24 hours; unit assumed. Type of assay: cell-based. As to the method:
as §1, §2
Escherichia coli IFO 12734 and
as §3, §4, §5

The test system of the next assay is Bacteroides. Put plainly: Effect on intestinal bacterial colonies, Bacteroides count in feces. It is filed as in vivo. To be noted: female ICR mice, oral 500 mg/kg/day for two days, first day after administration; before administration 8.3. The protocol: as §6, §7, §8
Bacteroides NBGT agar anaerobic, 37° C., five

`CC1(C)S[C@@H]2[C@H](NC(=O)C(N=Cc3ccccc3O)c3ccccc3)C(=O)N2[C@H]1C(=O)O` (some centres unmarked) [Example 4, sodium 6-(salicylaldehydeiminophenylglycino)penicillanate] returned an MIC, Staph. aureus in assay [1] of 0.78 mg/L. In assay [2], the “Proliferation-inhibiting index (%), after adding S-9 mix” value was “+++ (66-100)” and the “Proliferation-inhibiting index (%), before adding S-9 mix” value is “++ (33-66)”. For the same molecule, the “Logarithmic value of the number of bacterial cells per one gram of feces, E. coli” value in the assay with Escherichia coli is 6.4 logarithmic value; cells per o. In the assay with Pseudomonas aeruginosa, the “Logarithmic value of the number of bacterial cells per one gram of feces, Ps. aeruginosa” value is listed as < 3.0 logarithmic value; cells per o. The “Logarithmic value of the number of bacterial cells per one gram of feces, Strept. spp.” value in the assay with Streptococcus spp. is 6.5 logarithmic value; cells per o. In addition, the “Logarithmic value of the number of bacterial cells per one gram of feces, L. acidophilus” value in assay [3] is reported as 8.8 logarithmic value; cells per o. Besides, the “Logarithmic value of the number of bacterial cells per one gram of feces, L. bifidus” value with Lactobacillus bifidus was 8.8 logarithmic value; cells per o. Besides, the MIC, E. coli in assay [4] came out at 12.5 mg/L. Further, in the assay with Bacteroides, the “Logarithmic value of the number of bacterial cells per one gram of feces, Bacteroides” value is listed as 8.2 logarithmic value; cells per o.

The molecule `COCOC(=O)[C@@H]1N2C(=O)[C@@H](NC(=O)COc3ccccc3)[C@H]2SC1(C)C` [Example 9] came in with an MIC, Staph. aureus in [1] of 12.5 mg/L (≈ 31.7 µM). Further, in [2], the “Proliferation-inhibiting index (%), after adding S-9 mix” value was “++ (33-66)” and the “Proliferation-inhibiting index (%), before adding S-9 mix” value is “+ (1-33)”. Also, in the assay with Escherichia coli, the “Logarithmic value of the number of bacterial cells per one gram of feces, E. coli” value is listed as 6.5 logarithmic value; cells per o. The “Logarithmic value of the number of bacterial cells per one gram of feces, Ps. aeruginosa” value in the assay with Pseudomonas aeruginosa was 3.2 logarithmic value; cells per o. Also, in the assay on Streptococcus spp., the “Logarithmic value of the number of bacterial cells per one gram of feces, Strept. spp.” value is given as 7.0 logarithmic value; cells per o. In addition, in assay [3], the “Logarithmic value of the number of bacterial cells per one gram of feces, L. acidophilus” value was 9.5 logarithmic value; cells per o. Besides, the “Logarithmic value of the number of bacterial cells per one gram of feces, L. bifidus” value in the assay with Lactobacillus bifidus was 8.5 logarithmic value; cells per o. In assay [4], this molecule displayed an MIC, E. coli of at least 25 mg/L. In addition, the “Logarithmic value of the number of bacterial cells per one gram of feces, Bacteroides” value in the assay on Bacteroides is reported as 8.1 logarithmic value; cells per o.
